Here are results for 25 molecules from article PMC9313812, “The Pseudo‐Natural Product Rhonin Targets RHOGDI” (Angewandte Chemie (International Ed. in English), 2022).

Read-outs that look alike come from different tables or passages of the source.

In one assay the test system is C3H/10T1/2 cells. In words: Osteoblast differentiation assay (ODA): purmorphamine-induced osteogenesis, alkaline phosphatase luminescence readout. In kind it is cell-based, mouse. The arrangement: key to Osteogenesis IC50: Compounds are marked inactive when no inhibition was observed at the highest test concentration of 30 µM. As to conditions: for Osteogenesis IC50 / IC50: 1.5 µM purmorphamine, 96 h, n=3; for Inhibition of Hh-/purmorphamine-induced osteogenesis (in words): C3H/10T1/2 cells. On the procedure:
Supplementary Table S7. Inhibition of osteogenesis assay. C3H10T1/2 cells were incubated with 1.5 µM purmorphamine and compounds or DMSO as a control for 96 h. The activity of alkaline phosphatase was assessed by means of a luminescence readout. Values for cells, which were treated with DMSO and purmorphamine, were set to 100% and data were measured in […]
concentration of 30 µM. All data are mean values of three independent experiments (n = 3) ± […]
Compound Osteogenesis IC50
(1 picture or pasted object on this page, not shown here)
NIH/3T3 cells were obtained from DSMZ, Germany (DSMZ ACC 59) and were cultured in DMEM (high glucose) supplemented with 10% heat-inactivated FCS, 2 mM L -glutamine and 1 mM sodium pyruvate. Shh -LIGHT2 cells (NIH/3T3 cells stably transfected with a Gli-responsive firefly luciferase reporter plasmid and a pRL-TK constituitive Renilla luciferase expression vector)[4] were cultured in the same culturing medium supplemented with 400 μg ml −1 G418 and 150 μg ml −1 Zeocin as selecting agents. The murine osteoblasts C3H/10T1/2 (ATCC CCL-226) were obtained from ATCC, USA and were cultured in DMEM (high glucose) supplemented with 10% heat-inactivated FCS, 6 mM L -glutamine, 1 mM sodium pyruvate. HEK293T cells (ATCC, England) were grown in DMEM containing 10% FBS, 100 U ml −1 penicillin and 0.1 mg ml −1 streptomycin. All cell lines were maintained at 37 °C and 5% CO 2 in a humidified atmosphere. All the cell lines were regularly assayed for mycoplasma and were confirmed to be mycoplasma-free. Transfection of DNA constructs and siRNAs were performed using FuGENE HD (Promega), Lipofectamine® LTX (Invitrogen) and DharmaFECT™ (GE Healthcare) transfection reagent according to the manufacturer’s […]
Osteoblast differentiation assay
The osteoblast differentiation assay was performed by the Compound Management and Screening Center (COMAS) in Dortmund, Germany. C3H/10T1/2 cells were seeded (800 per well) in white 384-well plates or (6000 per well) in 96-well plates. After incubation for 16 h, compounds or DMSO were added to the cells using the acoustic nanoliter dispenser ECHO 520 (Labcyte) and osteogenesis was induced with 1.5 µM purmorphamine. Plates were incubated for 96 h at 37 °C and 5% CO2. Alkaline phosphatase activity was measured by replacing the medium with osteogenesis-lysis buffer (lysis buffer: 100 mM Tris pH 9.5, 250 mM NaCl, 25 mM MgCl2, 1% Triton X-100, sterile filtered) containing 1:100 chemiluminescent substrate CDP-Star® (Promega, 384-well plates: 35 µL, 96-well plates: 50 µL) for one hour in the dark at 25 °C. In 384-well plates, the luminescence was monitored using the Paradigm plate reader (Molecular Devices, USA), whereas Spark plate reader (Tecan, Austria) was used to measure luminescence in 96-well plates. Dose-response analyses were performed for all hit compounds […]
using a three-fold dilution series starting from a concentration of 30 μM. Half-maximal inhibitory concentrations (IC50) were calculated using the Quattro software suite (Quattro Research, Planegg, Germany) or GraphPad Prism 7 (GraphPad, USA).
The effect of test compounds on the viability of C3H/10T1/2 cells was determined by CellTiter-Glo Luminescence cell viability assay (Promega). Cells were treated as described for the osteogenesis assay prior to addition of the CellTiter-Glo® reagent according to manufacturer’s protocol. Compounds causing at least a 50% reduction in the osteogenesis assay and retaining cell viability of at least 80% were considered as hits. Dose-response analyses were performed for all hit compounds using a three-fold dilution series starting from a concentration of 30 μM. Half-maximal inhibitory concentrations (IC50) were calculated using the Quattro software suite (Quattro Research GmbH). […]

For the next assay, the system named is Shh-LIGHT2 cells. Briefly: GLI-dependent reporter gene assay (RGA). The format is cell-based. As to conditions: Shh Light2; Figure 2a; mean of three independent experiments. On the procedure:
using a three-fold dilution series starting from a concentration of 30 μM. Half-maximal inhibitory concentrations (IC50) were calculated using the Quattro software suite (Quattro Research, Planegg, Germany) or GraphPad Prism 7 (GraphPad, USA). […]
GLI-dependent reporter gene assay
Shh-LIGHT2 cells were seeded (2.5×10^4 per well) in 96-well plates. After incubation for 16 h, medium was replaced by low serum-containing medium (0.5% FCS) supplemented with 1.5 μM purmorphamine and various concentrations of the compounds or DMSO as a control and cells were incubated for 48 h. […]
On the technique in general: Reporter assays use an easily measured gene product as a stand-in for the process of interest.

The mark [1] stands for this setting: Table S7, mean ± SD, highest test concentration 30 µM.
The mark [2] stands for this setting: Mus musculus, C3H 10T1/2, Table S7, mean ± SD, highest test concentration 30 µM, read-out: Osteogenesis IC50.
The mark [3] stands for this setting: Table S13, Rac, Cdc42 and ROCK inhibitors, read-out: Osteogenesis IC50 ± SD.
The mark [4] stands for this setting: Mus musculus, C3H 10T1/2, Table S13, Rac, Cdc42 and ROCK inhibitors, read-out: Osteogenesis IC50 ± SD.

Consider `COC(=O)C12NC(c3ccc(Br)cc3)(C3C(=O)N(C)C(=O)C31)C1C(=O)N(c3ccccc3)C(=O)C12` (stereo not shown) [5a], for which the “Osteogenesis IC50” value in the assay on C3H/10T1/2 cells (setting [1]) was “inactive”. Still for that read-out and setting: with `COC(=O)C12NC(c3ccc(C)cc3)(C3C(=O)N(C)C(=O)C31)C1C(=O)N(c3ccccc3)C(=O)C12` (stereo not shown) [5b] the entry was “inactive”; with `COC(=O)c1ccc(C23NC(C(=O)OC)(C4C(=O)N(C)C(=O)C42)C2C(=O)N(c4ccccc4)C(=O)C23)cc1` (stereo not shown) [5c], “inactive”; with `COC(=O)C12NC(c3ccc(Cl)cc3)(C3C(=O)N(C)C(=O)C31)C1C(=O)N(c3ccccc3)C(=O)C12` (stereo not shown) [5d], “inactive”. On to `CCCN1C(=O)C2C(C1=O)C1(c3ccc(Br)cc3)NC2(C(=O)OC)C2C(=O)N(c3ccccc3)C(=O)C21` (stereo not shown) [5e], for which the “Osteogenesis IC50” value in the assay with C3H/10T1/2 cells (setting [1]) is “inactive”.

As to `COC(=O)C12NC(c3ccc(Br)cc3)(C3C(=O)N(c4ccccc4)C(=O)C31)C1C(=O)N(C3CCCCC3)C(=O)C12` (stereo not shown) [5f], in the assay with C3H/10T1/2 cells (setting [1]), the “Osteogenesis IC50” value was “inactive”.

Turning to `COC(=O)C1(C2CC(=O)N(c3ccccc3)C2=O)N=C(c2ccc(Br)cc2)C2C(=O)N(C)C(=O)C21` (stereo not shown) [6a], in the assay with C3H/10T1/2 cells (setting [1]), the “Osteogenesis IC50” value is “inactive”. The same measure, in the same setting: with `COC(=O)C1(C2CC(=O)N(c3ccccc3)C2=O)N=C(c2ccc(C(F)(F)F)cc2)C2C(=O)N(C)C(=O)C21` (stereo not shown) [6b] the entry was “inactive”.

On to `COC(=O)C1(C2CC(=O)N(c3ccccc3)C2=O)N=C(c2ccc(F)cc2)C2C(=O)N(C)C(=O)C21` (stereo not shown) [6c], for which the “Osteogenesis IC50” value in the assay with C3H/10T1/2 cells (setting [1]) was “inactive”. Regarding `COC(=O)C1(C2CC(=O)N(c3ccccc3)C2=O)N=C(c2ccc(C(C)(C)C)cc2)C2C(=O)N(C)C(=O)C21` (stereo not shown) [6d], the “Osteogenesis IC50” value with C3H/10T1/2 cells (setting [1]) was “inactive”. The same measure, in the same setting: with `COC(=O)C1(C2CC(=O)N(c3ccccc3)C2=O)N=C(c2cccc(OC)c2)C2C(=O)N(C)C(=O)C21` (stereo not shown) [6e] the entry was “inactive”. Consider `COC(=O)C1(C(CC(=O)c2ccc(Br)cc2)c2ccccc2)N=C(c2ccc(Br)cc2)C2C(=O)N(C)C(=O)C21` (stereo not shown) [7b], for which the “Inhibition of Hh-/purmorphamine-induced osteogenesis (in words)” value (from here on “Inhibition”) in the assay with C3H/10T1/2 cells is “abolished activity”. In addition, in the assay with C3H/10T1/2 cells (setting [1]), the “Osteogenesis IC50” value was “inactive”.

For the molecule `COC(=O)C1(CCC(C)=O)N=C(c2ccc(Br)cc2)C2C(=O)N(C)C(=O)C21` (stereo not shown) [7c], the values for the IC50 in the assay on Shh-LIGHT2 cells and in the assay on C3H/10T1/2 cells (setting [2]) were 8 µM and 6.2 ± 1.3 µM, respectively. Besides, the “Inhibition” value in the assay on C3H/10T1/2 cells is reported as “active”. Turning to `COC(=O)C1(CCC(=O)C=Cc2ccccc2)N=C(c2ccc(Br)cc2)C2C(=O)N(C)C(=O)C21` (stereo not shown) [7e], the IC50 was determined as 4.24 µM with Shh-LIGHT2 cells and 2.81 ± 0.4 µM in the assay on C3H/10T1/2 cells (setting [2]). For the molecule `COC(=O)C1(CCC(C)=O)N=C(c2ccc(Br)cc2)C2C(=O)N(c3ccccc3)C(=O)C21` (stereo not shown) [7f], the “Inhibition” value in the assay with C3H/10T1/2 cells is listed as “activity was lost”. The “Osteogenesis IC50” value with C3H/10T1/2 cells (setting [1]) was “inactive”. Consider `COC(=O)C1(C=CC(=O)c2ccccc2)N=C(c2ccc(Br)cc2)C2C(=O)N(C)C(=O)C21` (stereo not shown) [7g], for which the IC50 stood at 6.15 µM in the assay on Shh-LIGHT2 cells and 3.13 ± 0.2 µM in the assay with C3H/10T1/2 cells (setting [2]).

For `COC(=O)C=C(C(=O)OC)C1(C(=O)OC)N=C(c2ccc(Br)cc2)C2C(=O)N(C)C(=O)C21` (stereo not shown) [7h], in the assay on C3H/10T1/2 cells (setting [1]), the “Osteogenesis IC50” value was “inactive”.

For the molecule `COC(=O)C=C(C(=O)OC)C1(C(=O)OC)N=C(c2ccc(Br)cc2)C2C(=O)N(c3ccccc3)C(=O)C21` (stereo not shown) [7i], the “Osteogenesis IC50” value in the assay on C3H/10T1/2 cells (setting [1]) is “inactive”.

Take `O=c1cc(CN2CCOCC2)occ1OCCCCCSc1ccnc2cc(C(F)(F)F)ccc12` [EHT 1864, reference compound]: in the assay with C3H/10T1/2 cells (setting [3]), the IC50 was over 2 µM.

With `CCn1c2ccccc2c2cc(Nc3ccnc(NCCCN4CCOCC4)n3)ccc21` [EHop-016, reference compound], the IC50 with C3H/10T1/2 cells (setting [3]) is 0.881 ± 0.08 µM. In the case of `COc1cc(C2=NC(C)=C(C(=O)Nc3ccc4[nH]ncc4c3)C(c3ccc(Cl)cc3F)N2)ccn1` (stereo not shown) [GSK534911A, reference compound], the IC50 in the assay on C3H/10T1/2 cells (setting [4]) is 1.55 ± 0.5 µM. Turning to `Cc1cncc2cccc(S(=O)(=O)N3CCCNC[C@@H]3C)c12` [H-1152, reference compound], the IC50 in the assay on C3H/10T1/2 cells (setting [3]) was 2.87 µM. `COC(=O)[C@@]1([C@H](CC(=O)c2ccc(Br)cc2)c2ccc(C(=O)NCCOCCOCCNC(=O)OC(C)(C)C)cc2)N=C(c2ccc(Br)cc2)[C@H]2C(=O)N(C)C(=O)[C@H]21` [S10b]: the “Osteogenesis IC50” value with C3H/10T1/2 cells (setting [1]) was “inactive”. As to `CN(C)CCOc1cc(-c2cn[nH]c2)ccc1NC(=O)C1COc2ccccc2O1` (stereo not shown) [SR-3677, reference compound], the IC50 in the assay with C3H/10T1/2 cells (setting [4]) was 1.72 ± 0.1 µM. On to `Cc1cc(C)nc(NS(=O)(=O)c2ccc(NC(=S)NC(=O)COc3ccc(Br)cc3Cl)cc2)n1` [ZCL278, reference compound], for which the “Osteogenesis, activity at 2 µM” value in the assay on C3H/10T1/2 cells (Table S13, 2 µM, DMSO + purmorphamine = 100%) is given as 75%.

What is called IC50 is the concentration needed to halve the response being measured.
